Measured values reported in patent US10710978B2, “STK4 inhibitors for treatment of hematologic malignancies” (Dana-Farber Cancer Institute, Inc., priority 2015, dated 2020).
Values joined by “and” are separate entries in the source; they are usually repeats but may differ in a detail not shown here. Equal entries are not always repeated. Where two headings read alike, the source gives them in different places.

How the values were obtained:
Experiment in all cases: KiNativ assay
Format in all cases: binding
CK1g1 = CK1g1 (Homo sapiens (Human), UniProt Q9HCP0); settings: H929 live cell
Procedure, shortened: (§1)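 H929 live-cell screen at 10 μM, run in duplicate. Kinase occupancy was assessed via the KiNativ platform, with IC50 determined by mass spectrometry.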

ROCK1, ROCK2 = settings: H929 live cell; for % inhibition (range): 10 μM
Procedure, shortened: (§2)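 In duplicate, compounds at 10 μM were screened against kinases in H929 live cells using KiNativ, with MS as the detection method for IC50.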

RIPK3 = RIPK3 (Homo sapiens (Human), UniProt Q9Y572); settings: H929 live cell
Procedure, shortened: as §2

ARAF = ARAF (Homo sapiens (Human), UniProt P10398); settings: H929 live cell
Procedure, shortened: as §2

CK1d, CK1e = settings: H929 live cell
Procedure, shortened: as §1

PDK1 = PDK1 (Homo sapiens (Human), UniProt O15530); settings: H929 live cell
Procedure, shortened: as §2

DNAPK = DNAPK (Homo sapiens (Human), UniProt P78527); settings: H929 live cell
Experimental: Biochemical IC50s of the compounds of the present disclosure against various kinases were measured in a KiNativ assay. Compounds were screened in duplicate at 10 μM in H929 live cell. IC50 was measured via Mass spectroscopy (MS).

QSK = QSK (Homo sapiens (Human), UniProt Q9Y2K2); settings: H929 live cell
Procedure, shortened: as §2

GPRK5 = GPRK5 (Homo sapiens (Human), UniProt P34947); settings: H929 live cell
Procedure, shortened: as §1

Sequence of CK1g1 (Q9HCP0 whole entry): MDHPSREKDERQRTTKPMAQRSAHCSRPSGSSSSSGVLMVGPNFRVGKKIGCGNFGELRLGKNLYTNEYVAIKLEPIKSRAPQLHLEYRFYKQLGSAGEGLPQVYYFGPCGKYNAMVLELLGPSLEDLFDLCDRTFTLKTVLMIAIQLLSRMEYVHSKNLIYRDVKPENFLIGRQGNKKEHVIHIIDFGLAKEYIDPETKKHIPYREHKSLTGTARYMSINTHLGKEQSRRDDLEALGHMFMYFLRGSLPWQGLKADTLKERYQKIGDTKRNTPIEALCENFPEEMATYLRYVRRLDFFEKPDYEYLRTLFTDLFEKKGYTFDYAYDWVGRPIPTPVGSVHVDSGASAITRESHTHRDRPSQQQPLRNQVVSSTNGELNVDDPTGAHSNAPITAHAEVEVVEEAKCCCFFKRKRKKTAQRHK
Sequence of RIPK3 (Q9Y572 whole entry): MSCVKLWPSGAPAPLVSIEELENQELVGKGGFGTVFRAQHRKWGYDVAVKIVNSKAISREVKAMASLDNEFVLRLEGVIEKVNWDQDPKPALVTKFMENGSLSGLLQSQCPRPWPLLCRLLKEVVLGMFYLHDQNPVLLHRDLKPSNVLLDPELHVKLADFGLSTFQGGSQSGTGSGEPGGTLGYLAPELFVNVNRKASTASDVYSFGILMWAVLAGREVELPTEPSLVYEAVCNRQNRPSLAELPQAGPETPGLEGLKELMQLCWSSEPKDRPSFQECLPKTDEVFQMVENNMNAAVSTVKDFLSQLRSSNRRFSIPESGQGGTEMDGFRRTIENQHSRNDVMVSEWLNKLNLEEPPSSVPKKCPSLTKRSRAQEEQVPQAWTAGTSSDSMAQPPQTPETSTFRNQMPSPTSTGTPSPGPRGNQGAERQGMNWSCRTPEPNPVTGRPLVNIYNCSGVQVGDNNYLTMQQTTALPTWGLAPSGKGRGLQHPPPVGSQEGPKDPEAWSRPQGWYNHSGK
Sequence of ARAF (P10398 whole entry): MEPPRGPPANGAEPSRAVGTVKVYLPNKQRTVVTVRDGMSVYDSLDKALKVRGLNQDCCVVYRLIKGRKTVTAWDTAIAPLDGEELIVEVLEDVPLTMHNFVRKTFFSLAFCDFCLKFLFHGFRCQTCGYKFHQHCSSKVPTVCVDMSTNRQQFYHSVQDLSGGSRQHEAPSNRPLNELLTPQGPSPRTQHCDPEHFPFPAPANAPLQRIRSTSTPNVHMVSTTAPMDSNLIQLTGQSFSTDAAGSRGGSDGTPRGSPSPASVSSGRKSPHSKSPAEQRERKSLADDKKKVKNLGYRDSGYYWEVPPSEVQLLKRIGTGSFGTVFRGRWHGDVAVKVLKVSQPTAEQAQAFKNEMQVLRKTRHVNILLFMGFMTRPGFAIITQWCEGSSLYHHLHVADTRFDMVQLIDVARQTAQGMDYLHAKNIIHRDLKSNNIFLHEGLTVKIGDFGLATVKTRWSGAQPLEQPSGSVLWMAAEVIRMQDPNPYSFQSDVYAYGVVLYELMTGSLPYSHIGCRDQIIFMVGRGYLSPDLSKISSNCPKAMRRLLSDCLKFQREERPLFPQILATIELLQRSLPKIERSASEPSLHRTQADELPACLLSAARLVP
Sequence of QSK (Q9Y2K2 whole entry): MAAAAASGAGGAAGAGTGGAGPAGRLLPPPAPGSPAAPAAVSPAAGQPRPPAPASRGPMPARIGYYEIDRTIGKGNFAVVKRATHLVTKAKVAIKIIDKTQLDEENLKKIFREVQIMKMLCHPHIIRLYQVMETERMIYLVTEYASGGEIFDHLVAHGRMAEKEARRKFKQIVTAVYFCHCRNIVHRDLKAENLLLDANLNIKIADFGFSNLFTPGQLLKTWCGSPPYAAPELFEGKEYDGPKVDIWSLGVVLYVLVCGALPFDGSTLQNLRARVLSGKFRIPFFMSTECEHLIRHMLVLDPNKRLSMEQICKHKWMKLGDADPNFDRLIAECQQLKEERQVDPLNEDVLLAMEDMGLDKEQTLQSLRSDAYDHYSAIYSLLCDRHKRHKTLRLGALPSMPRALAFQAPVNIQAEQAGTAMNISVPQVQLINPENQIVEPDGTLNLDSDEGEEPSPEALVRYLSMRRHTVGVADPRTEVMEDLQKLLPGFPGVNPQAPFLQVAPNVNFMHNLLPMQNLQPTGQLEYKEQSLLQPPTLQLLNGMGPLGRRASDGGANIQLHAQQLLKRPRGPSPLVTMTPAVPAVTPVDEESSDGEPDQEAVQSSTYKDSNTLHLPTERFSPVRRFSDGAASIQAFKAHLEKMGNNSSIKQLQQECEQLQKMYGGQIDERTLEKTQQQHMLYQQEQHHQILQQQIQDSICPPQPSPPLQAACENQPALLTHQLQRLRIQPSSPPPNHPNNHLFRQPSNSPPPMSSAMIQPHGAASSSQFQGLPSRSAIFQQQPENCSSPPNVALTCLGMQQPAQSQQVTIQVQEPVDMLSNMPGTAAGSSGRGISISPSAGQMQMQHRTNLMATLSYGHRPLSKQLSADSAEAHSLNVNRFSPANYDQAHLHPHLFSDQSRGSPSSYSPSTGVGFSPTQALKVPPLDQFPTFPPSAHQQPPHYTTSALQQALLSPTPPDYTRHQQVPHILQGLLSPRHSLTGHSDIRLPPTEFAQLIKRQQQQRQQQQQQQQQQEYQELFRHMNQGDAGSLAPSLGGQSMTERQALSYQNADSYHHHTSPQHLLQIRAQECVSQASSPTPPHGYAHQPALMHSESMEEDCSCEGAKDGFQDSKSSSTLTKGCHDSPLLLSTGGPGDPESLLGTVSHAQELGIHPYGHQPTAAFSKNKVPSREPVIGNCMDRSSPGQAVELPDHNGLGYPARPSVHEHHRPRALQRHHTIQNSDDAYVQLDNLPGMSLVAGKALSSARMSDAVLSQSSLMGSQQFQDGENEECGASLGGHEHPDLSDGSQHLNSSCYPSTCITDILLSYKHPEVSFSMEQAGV
Sequence of GPRK5 (P34947 whole entry): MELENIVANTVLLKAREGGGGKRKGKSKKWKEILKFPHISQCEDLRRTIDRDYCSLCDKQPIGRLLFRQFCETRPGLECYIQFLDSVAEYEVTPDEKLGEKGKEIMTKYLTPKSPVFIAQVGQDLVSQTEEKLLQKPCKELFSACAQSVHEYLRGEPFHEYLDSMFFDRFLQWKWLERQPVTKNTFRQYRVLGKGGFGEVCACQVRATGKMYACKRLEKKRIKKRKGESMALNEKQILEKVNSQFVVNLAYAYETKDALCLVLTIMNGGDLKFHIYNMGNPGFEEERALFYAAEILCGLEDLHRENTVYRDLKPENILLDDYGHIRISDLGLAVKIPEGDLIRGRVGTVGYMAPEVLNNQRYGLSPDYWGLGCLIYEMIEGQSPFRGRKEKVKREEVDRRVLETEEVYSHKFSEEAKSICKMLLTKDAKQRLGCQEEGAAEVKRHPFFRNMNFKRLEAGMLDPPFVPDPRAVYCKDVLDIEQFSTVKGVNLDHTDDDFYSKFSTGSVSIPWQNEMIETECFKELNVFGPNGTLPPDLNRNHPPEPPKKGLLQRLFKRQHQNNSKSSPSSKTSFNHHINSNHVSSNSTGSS
Sequence of PDK1 (O15530 whole entry): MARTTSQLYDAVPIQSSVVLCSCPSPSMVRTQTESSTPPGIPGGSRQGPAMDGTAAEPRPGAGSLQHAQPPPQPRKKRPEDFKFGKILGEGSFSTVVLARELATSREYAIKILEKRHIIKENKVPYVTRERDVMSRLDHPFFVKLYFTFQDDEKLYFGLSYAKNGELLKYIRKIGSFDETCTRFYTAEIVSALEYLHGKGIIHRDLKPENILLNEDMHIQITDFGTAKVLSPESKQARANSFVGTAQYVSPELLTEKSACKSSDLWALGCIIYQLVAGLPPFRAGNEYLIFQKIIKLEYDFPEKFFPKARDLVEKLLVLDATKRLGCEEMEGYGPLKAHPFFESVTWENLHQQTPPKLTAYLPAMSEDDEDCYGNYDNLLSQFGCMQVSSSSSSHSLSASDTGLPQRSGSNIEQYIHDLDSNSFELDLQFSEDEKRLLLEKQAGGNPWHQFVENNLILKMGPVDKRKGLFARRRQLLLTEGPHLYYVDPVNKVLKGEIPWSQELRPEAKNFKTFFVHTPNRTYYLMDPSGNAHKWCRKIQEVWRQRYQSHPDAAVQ

Row | SMILES | inhibition at 10 µM (CK1g1; read-out: % inhibition (range)) [%] | inhibition at 10 µM (CK1g1; read-out: inhibition (10 μM)) [%] | % inhibition (range) (ROCK1, ROCK2) [%] | inhibition (10 μM) (ROCK1, ROCK2) [%] | inhibition at 10 µM (RIPK3; read-out: inhibition (10 μM)) [%] | inhibition at 10 µM (ARAF; read-out: % inhibition (range)) [%] | inhibition at 10 µM (ARAF; read-out: inhibition (10 μM)) [%] | % inhibition (range) (CK1d, CK1e; 10 μM) | inhibition (10 μM) (CK1d, CK1e) [%] | inhibition at 10 µM (PDK1; read-out: % inhibition (range)) [%] | inhibition at 10 µM (PDK1; read-out: inhibition (10 μM)) [%] | inhibition (10 μM) (DNAPK) | inhibition at 10 µM (QSK; read-out: % inhibition (range)) [%] | inhibition at 10 µM (QSK; read-out: inhibition (10 μM)) [%] | inhibition at 10 µM (GPRK5; read-out: % inhibition (range)) [%] | inhibition at 10 µM (GPRK5; read-out: inhibition (10 μM)) [%] | inhibition at 10 µM (RIPK3; read-out: % inhibition (range)) [%] | % inhibition (range) (DNAPK; 10 μM) | inhibition at 10 µM (DNAPK; read-out: % inhibition (range)) [%] | inhibition at 10 µM (DNAPK; read-out: inhibition (10 μM)) [%]
1 | CN(C1CC1)S(=O)(=O)c1ccc(-c2cnc(N)c(-c3ccc4c(c3)CCNC4=O)c2)c(F)c1 [Compound I-28, 4-(6-amino-5-(1-oxo-1,2,3,4-tetrahydroisoquinolin-6-yl)pyridin-3-yl)-N-cyclopropyl-3-fluoro-N-methylbenzenesulfonamide] | 75 to 90 | > 85 | 0.0 | 20.8 | -121 | 0 | 8 | 50-75% | 68.2 | 0 | 5.9 | 42.6% and 82.1% | 0 | 30.1 | 0 | 10.7 |  |  |  | 
2 | Nc1ncc(-c2cccc3ncsc23)cc1-c1ccc2c(c1)CCNC2=O [Compound I-13, 6-(2-amino-5-(benzo[d]thiazol-7-yl)pyridin-3-yl)-3,4-dihydroisoquinolin-1(2H)-one] | 75 to 90 | > 85 | 0.0 | −11.4 | -25.9 | 0 | 16.7 |  | 58.9 | 0 | 17.5 | 59.4% | 35 to 50 | 47.8 | 0 | -12 | 0 | 50-75% | 35 to 50 | 44.7
